Legend:
[1] = ESI-MS evaluation of active cocktail components (stability, molecular interaction); format: physicochemical; conditions: ESI-MS after ethyl acetate extraction (FIG. 6)
Experimental: Then the molecular mass of the extracted components was analyzed by electrospray ionization mass spectrometry (ESI-MS) (FIG. 6). […] Then the preparation was centrifuged at 10 000 g for 2 min at room temperature. The top layer (ethyl acetate) was then separated and transferred to a new vial. Another […] ethyl acetate was added into the bottom layer, and the extraction was repeated. The combined organic phase was dried with nitrogen gas. The residue was reconstituted in 500 μL methanol, vortexed for 10 s, and centrifuged at 13 000 g for 2 min. The final extract was transferred into a polypropylene vial. Then 30 μL of the final extract was injected and analyzed on a LTQ XL™ Linear Ion Trap Mass Spectrometer (Thermo Fisher Scientific, Waltham, MA), and the data was analyzed using Xcalibur 3.1 (Thermo Fisher Scientific, Waltham, MA).

[2] = Solubility in water during cocktail formulation; format: physicochemical; conditions: formulation NWH-1
control and CA rats = test: Cocktail development trials to assess survival benefit (Table 9); format: in vivo, rat; conditions: reason for removal from the cocktail
Experimental: Our goal was to provide the most benefit with the least number of agents in a single concoction. […] This information can aid in selecting agents that can be appropriately and practically combined. […] Each drug, individually and in various combinations, was administered to normal rats (n=3) to determine any potential adverse effects, such as immediate death.

SMILES	Stability of drug in the final cocktail formulation by mass spectra [1]	other results
CC(=O)N[C@@H](CS)C(=O)O [N-acetyl cysteine]	intact and stable	–
CC1=NN(c2ccccc2)C(=O)C1 [edaravone, Edaravone]	intact and stable	–
C/C(=C(\CCOC(=O)C(C)C)SS/C(CCOC(=O)C(C)C)=C(/C)N(C=O)Cc1cnc(C)nc1N)N(C=O)Cc1cnc(C)nc1N [sulbutiamine, Sulbutiamine]	–	Solubility in water [2]: insoluble in
Nc1ncnc2c1ncn2[C@@H]1O[C@H](COP(=O)([O-])OP(=O)(O)OP(=O)(O)O)[C@@H](O)[C@H]1O.[Cl-].[Mg+2] [ATP-magnesium chloride, adenosine triphosphate-magnesium chloride]	–	Adverse effect seen in preliminary trials (control and CA rats): hypotensive effect
COC1=C(OC)C(=O)C(C/C=C(\C)CC/C=C(\C)CC/C=C(\C)CC/C=C(\C)CC/C=C(\C)CC/C=C(\C)CC/C=C(\C)CC/C=C(\C)CC/C=C(\C)CCC=C(C)C)=C(C)C1=O [CoQ10, Coenzyme Q10]	–	Solubility in water [2]: insoluble in

Now from value to compound, other results behind:

Stability of drug in the final cocktail formulation by mass spectra [1]	SMILES	other results
intact and stable	CN(C)C(=N)N=C(N)N [metformin, Metformin]	–
intact and stable	O=C1O[C@H]([C@@H](O)CO)C(O)=C1O [vitamin C, ascorbic acid]	–
intact and stable	N=C(N)NC(=O)c1cnn(-c2cccc3ncccc23)c1C1CC1 [zoniporide, Zoniporide]	–

Reference: US12053442B2, “Methods and compositions for neuroprotection” (The Feinstein Institutes for Medical Research, priority 2020, dated 2024)
